Structures are written as SMILES.

The source of these data is patent US9884874B2, “Bromodomain-inhibiting compounds and pharmaceutical composition comprising same for preventing or treating a cancer” (KAINOS MEDICINE, INC., priority 2014, dated 2018).

One data set deals with OPM-2 (multiple myeloma). Description: Anti-proliferative activity, OPM-2. The format is cell-based. The settings on record: Homo sapiens, read-out: Cell proliferation, IC50.
A further data set has as its system MDA-MB-435 (breast). The experiment in a line: Anti-proliferative activity, MDA-MB-435. The format is cell-based. The settings on record: Homo sapiens, read-out: Cell proliferation, IC50.
Data set [1] can be described thus: Mouse liver microsomal stability/clearance. The format is in vitro ADME. The settings on record: mouse liver microsomes; second value of Human/Mouse cell; read-out: Liver microsomal clearance (Mouse).
The nature of data set [2]: Pharmacokinetics in Sprague Dawley rats. The format is in vivo, Sprague Dawley (SD) rats. Conditions: plasma, rat. The protocol:
For serum compound analysis, blood samples were collected by cardiac puncture over 24 hr time course. 20 μL of spiked plasma was added into a 96-well plate, adding ten volumes of internal standard (IS) in acetonitrile (ACN) to the obtained precipitated protein mixed thoroughly, centrifuged at 4,000 rpm for 10 min. 150 μL of supernatant thus obtained was transferred to another pre-labeled 96-well plate, mixed with 150 μL of water. 5 μL or 10 μL of the mixture was injected into the LC-MS system under the following conditions:
Column: API-4000+Waters UPLC (TCLM08);
Lower limit of quantification (LLOQ) was at 1 ng/mL. Pharmacokinetic parameters of half-life (T1/2), clearance (CL), maximum plasma concentration (Cmax), mean residence time (MRT) and bioavailability (F %), plasma exposure (AUC) of the compound were calculated using Phoenix WinNonlin 6.3 (non-compartmental model).
Also, pharmacokinetics of compound 1 was evaluated in Sprague Dawley (SD) rats following IV administration at 3 mg/kg or 10 mg/kg dose level, and PO administration at 3 mg/kg or 10 mg/kg dose level, respectively.

The subject of data set [3] is MV4-11 (human leukemia cell line). Description: Anti-proliferative activity test (CellTiter-Glo), MV4-11. The format is cell-based. The settings on record: second value of LnCAP/MV4-11 cell, read-out: Cell proliferation IC50 (MV4-11). The protocol:
IC50 (uM) of the compounds obtained in Examples 1 to 18 against hematological cancer cells and solid tumors was measured for identifying anti-proliferative activities.
A human prostatic adenocarcinoma cell line, LnCAP (ATCC®, CRL-1740) and human leukemia cell line MV4-11 (ATCC®, CRL-9591) were used to test the degrees of the compounds 1 to 18 in inhibiting the cancer cell growth. The testing cell concentration was adjusted to 6.7×10^3 cells/ml with a culture medium supplemented with 10% FBS, in the temperature of 37° C., 5% CO2 and 95% humidity. Culture media and FBS were purchased from GIBCO. 90 μL of cell suspensions thus obtained was added to two 96-well plates with the final cell density of 600 cells/well, followed by addition of 10 μL of culture medium to each well of plate. The plates were incubated overnight in a humidified incubator at 37° C. with 5% CO2.
Compounds 1 to 18 were each dissolved with dimethylsulfoxide (DMSO) or phosphate buffer solution (PBS) as a stock solution, and 200× solutions of test compound (2 mM) using DMSO were prepared. Then, the DMSO solution thus obtained was diluted 20-fold with culture medium or PBS to obtain 10× working solution. 10 μL of 10× working solution (drug solution) was dispensed to each well (triplicate for each concentration). The final concentration of DMSO in culture medium was 0.5% [v/v].
Cell viability was determined using CellTiter-Glo® (CTG) assay. 100 μL of CellTiter-Glo® was added to the equal volume of the cultured cells to read luminescence in EnVision Multi Label Reader.

The subject of the next data set is SK-LU-1 (adenocarcinoma). Description: Anti-proliferative activity, SK-LU-1. The format is cell-based. The settings on record: Homo sapiens, SKLU-1 (Adenocarcinoma), read-out: Cell proliferation, IC50.
The subject of data set [4] is MOLT-4 (acute lymphoblastic leukemia). The experiment in a line: Anti-proliferative activity, MOLT-4. The format is cell-based. The settings on record: Homo sapiens, read-out: Cell proliferation, IC50.

With `COc1ccc2c(c1)C(c1ccc(Cl)cc1)=N[C@@H](COS(C)(=O)=O)c1nnc(C)n1-2` [Compound 1, (R)-(6-(4-chlorophenyl)-8-methoxy-1-methyl-4H-benzo[f]-[1,2,4]triazolo[4,3-a][1,4]diazepin-4-yl)methyl methanesulfonate], the IC50 in the data set on OPM-2 (multiple myeloma) is 1.45 µM; with MDA-MB-435 (breast), 5.99 µM; in data set [3] it was 0.31 µM; in the data set on SK-LU-1 (adenocarcinoma) it was 6.96 µM; in data set [4], 2.63 µM. Further, the microsomal CLint at 1 µM in data set [1] was 4.7 µL/min/mg. Moreover, the AUC in data set [2] (IV, 3 mg/kg) was 2 µM·h; in data set [2] (IV, 10 mg/kg), 15.4 µM·h; in data set [2] (PO, 3 mg/kg), 1 µM·h; in data set [2] (PO, 10 mg/kg), 13.6 µM·h. In addition, the clearance in data set [2] (IV, 3 mg/kg) came out at 54.8 mL/min/kg; in data set [2] (IV, 10 mg/kg), 24.9 mL/min/kg. The MRT in data set [2] (IV, 10 mg/kg) came to 1.86 h. Moreover, the bioavailability in data set [2] (PO, 3 mg/kg) amounted to 50.6%; in data set [2] (PO, 10 mg/kg), 88.6%.
